Test systems include A498 renal; SK-MEL-28 melanoma; MCF7 breast; NCI-H460 lung; HCT-15 colon; NCI-H522 lung; UACC-257 melanoma; T-47D breast; A549 NSCLC; SK-MEL-2 melanoma; MDA-MB-231 breast; PC-3 prostate; OVCAR-4 ovarian; IGROV1 ovarian; DU-145 prostate; NCI-H226 lung; HOP-92 NSCLC; OVCAR-3 ovarian; CCRF-CEM leukemia.
Common to all, as to assay: DTP human tumour cell line panel, 48 h

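All cell lines were grown in 96-well plates and treated with compound for 48 hours. The concentration for full growth arrest is given as TGI.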

As usually defined, the TGI is the concentration at which net growth stops. A low value points to more potent growth arrest. As to `O=[N+]([O-])C(=C(Cl)Cl)C(Cl)=C(Cl)Cl`, the TGI is 14.9 µM in the test with A498 renal; 0.912 µM in the test on SK-MEL-28 melanoma; 0.992 µM in the test on MCF7 breast; 5.21 µM in the test on NCI-H460 lung; 0.908 µM with HCT-15 colon; below 0.0106 µM in the test on NCI-H522 lung. Moreover, the total growth inhibition concentration (TGI) with UACC-257 melanoma is 0.74 µM; in the test on T-47D breast, 0.289 µM; with A549 NSCLC, 19.6 µM; in the test on SK-MEL-2 melanoma, 3.24 µM; in the test on MDA-MB-231 breast, 2.11 µM; with PC-3 prostate, 4.66 µM. In addition, the TGI with OVCAR-4 ovarian was 0.482 µM; in the test with IGROV1 ovarian, 1.15 µM; in the test on DU-145 prostate, 24 µM; with NCI-H226 lung, 3.53 µM; with HOP-92 NSCLC, 1.03 µM; in the test on OVCAR-3 ovarian, 2.24 µM.

`C[N+](C)(CCCn1ccnc1[N+](=O)[O-])CCCn1ccnc1[N+](=O)[O-]`: the TGI in the test on A498 renal, with SK-MEL-28 melanoma, in the test with MCF7 breast, in the test with NCI-H460 lung, in the test on HCT-15 colon and in the test on NCI-H522 lung was above 100 µM in each case. Besides, the TGI with UACC-257 melanoma, in the test on T-47D breast, in the test on A549 NSCLC, in the test on SK-MEL-2 melanoma, in the test with MDA-MB-231 breast and in the test with PC-3 prostate was above 100 µM throughout. The TGI with OVCAR-4 ovarian, in the test on IGROV1 ovarian, in the test on CCRF-CEM leukemia, in the test on DU-145 prostate, with NCI-H226 lung and in the test on OVCAR-3 ovarian was above 100 µM in each case.

In the case of `Cc1ccc(Cc2n[nH]c(=O)[nH]2)cc1`, the TGI in the test with A498 renal, in the test with SK-MEL-28 melanoma, in the test on MCF7 breast, in the test on NCI-H460 lung, in the test on HCT-15 colon and in the test with UACC-257 melanoma was above 100 µM throughout. Further, the concentration for total growth inhibition (TGI) in the test on T-47D breast, in the test on A549 NSCLC, in the test with SK-MEL-2 melanoma, in the test on MDA-MB-231 breast, with PC-3 prostate and in the test on OVCAR-4 ovarian was above 100 µM each time. In addition, the TGI in the test on IGROV1 ovarian, with CCRF-CEM leukemia, in the test with DU-145 prostate, in the test with NCI-H226 lung, with HOP-92 NSCLC and with OVCAR-3 ovarian was above 100 µM each time.

With `O=C1C=Cc2c(Br)sc(Br)c21`, the TGI was above 100 µM in the test with A498 renal; 84.9 µM with SK-MEL-28 melanoma; above 100 µM in the test on MCF7 breast; above 100 µM with NCI-H460 lung; 90.4 µM in the test with HCT-15 colon; 68.2 µM in the test with NCI-H522 lung. Further, the TGI in the test with UACC-257 melanoma was above 100 µM; in the test on T-47D breast, 81.8 µM; in the test on A549 NSCLC it was above 100 µM; in the test on SK-MEL-2 melanoma, 70.3 µM; with MDA-MB-231 breast it was 52.4 µM; with PC-3 prostate it was 49.7 µM. Besides, the TGI in the test on IGROV1 ovarian was 43.5 µM; in the test with CCRF-CEM leukemia, 11.3 µM; in the test with DU-145 prostate it was above 100 µM; in the test on HOP-92 NSCLC it was 60 µM; in the test on OVCAR-3 ovarian it was 32.3 µM.

`CN1Cc2ccccc2S(=O)(=O)n2cccc2C1=O`: the TGI in the test with A498 renal, in the test on SK-MEL-28 melanoma, in the test with MCF7 breast, with NCI-H460 lung, with HCT-15 colon and with NCI-H522 lung was above 100 µM throughout. The TGI in the test with UACC-257 melanoma, in the test on T-47D breast, in the test on A549 NSCLC, in the test on SK-MEL-2 melanoma, in the test with MDA-MB-231 breast and with PC-3 prostate was above 100 µM each time. Further, the TGI with OVCAR-4 ovarian, in the test with IGROV1 ovarian, with CCRF-CEM leukemia, in the test on DU-145 prostate, with HOP-92 NSCLC and with OVCAR-3 ovarian was above 100 µM each time.

With `COc1c2c(cc3c1C(=O)c1c(O)cccc1C3=O)CC(O)CC2` (centres undefined), the TGI with A498 renal, with SK-MEL-28 melanoma, in the test with MCF7 breast, in the test on NCI-H460 lung, in the test with HCT-15 colon and with UACC-257 melanoma was above 100 µM throughout. Besides, the TGI with T-47D breast is 93.6 µM; in the test with A549 NSCLC, above 100 µM; with SK-MEL-2 melanoma, above 100 µM; in the test with MDA-MB-231 breast, 51.9 µM; in the test with PC-3 prostate, above 100 µM; with OVCAR-4 ovarian, above 100 µM. Also, the TGI in the test on IGROV1 ovarian was above 100 µM; in the test with CCRF-CEM leukemia, above 100 µM; in the test on DU-145 prostate it was above 100 µM; with NCI-H226 lung it was above 100 µM; in the test with HOP-92 NSCLC, 40.1 µM; in the test on OVCAR-3 ovarian it was above 100 µM.

For the compound `C=CCC1(O)CC(n2cc(C)c(=O)[nH]c2=O)OC1CO[Si](C)(C)C(C)(C)C` (centres undefined), the TGI in the test on A498 renal, in the test with SK-MEL-28 melanoma, in the test on MCF7 breast, in the test on NCI-H460 lung, in the test with HCT-15 colon and with UACC-257 melanoma was above 100 µM throughout. Moreover, the TGI in the test on T-47D breast, in the test on A549 NSCLC, in the test with SK-MEL-2 melanoma, with MDA-MB-231 breast, with PC-3 prostate and in the test on OVCAR-4 ovarian was above 100 µM throughout. The TGI in the test on IGROV1 ovarian, in the test with CCRF-CEM leukemia, with DU-145 prostate, with NCI-H226 lung, in the test with HOP-92 NSCLC and with OVCAR-3 ovarian was above 100 µM throughout.

In the case of `CN1CCc2cc3c(c4c2C1C(O)c1ccccc1-4)OCO3` (centres undefined), the TGI in the test on A498 renal was determined as 8.45 µM; with SK-MEL-28 melanoma it was 85.7 µM; with MCF7 breast it was 19.3 µM; in the test with NCI-H460 lung, 11.9 µM; with HCT-15 colon, 20.3 µM; with NCI-H522 lung it was 13.7 µM. The TGI was 26.3 µM with UACC-257 melanoma; above 100 µM in the test on T-47D breast; 52.1 µM in the test with A549 NSCLC; 21.7 µM in the test on SK-MEL-2 melanoma; 22.5 µM in the test on MDA-MB-231 breast; 18.6 µM in the test on PC-3 prostate. Moreover, the TGI with OVCAR-4 ovarian was 29.5 µM; in the test with IGROV1 ovarian, 26 µM; in the test on CCRF-CEM leukemia it was 9.69 µM; in the test with DU-145 prostate, above 100 µM; in the test on HOP-92 NSCLC it was 7.22 µM; in the test on OVCAR-3 ovarian, 44.1 µM.

Take `C/C=C/C(C#N)(/C=C/c1ccccc1)OP1(=O)OC(c2ccccc2)C(C)N1C` (centres undefined): the TGI in the test on A498 renal was 35.6 µM; with SK-MEL-28 melanoma, 32.7 µM; with MCF7 breast, 49.4 µM; with NCI-H460 lung, 33.8 µM; in the test on NCI-H522 lung, 42.2 µM; in the test with UACC-257 melanoma, 35.1 µM. Besides, the TGI was determined as 68.9 µM with T-47D breast; 45.4 µM with A549 NSCLC; 35.9 µM in the test with SK-MEL-2 melanoma; 34.9 µM in the test on MDA-MB-231 breast; 33.3 µM in the test with PC-3 prostate; 32.8 µM in the test on IGROV1 ovarian. The TGI with CCRF-CEM leukemia amounted to 28 µM; in the test on DU-145 prostate, 90.1 µM; with HOP-92 NSCLC it was 31.6 µM; with OVCAR-3 ovarian, 35.5 µM.

Take `NC(=O)C(=CNC(N)=S)C(N)=O`: the TGI in the test with A498 renal, with SK-MEL-28 melanoma, with MCF7 breast, in the test on NCI-H460 lung, in the test on HCT-15 colon and with NCI-H522 lung was above 100 µM in each case. Also, the TGI with UACC-257 melanoma, in the test with T-47D breast, in the test with A549 NSCLC, in the test with SK-MEL-2 melanoma, in the test with MDA-MB-231 breast and in the test on PC-3 prostate was above 100 µM each time. In addition, the TGI in the test on OVCAR-4 ovarian, in the test on IGROV1 ovarian, with CCRF-CEM leukemia, with DU-145 prostate, with NCI-H226 lung and in the test on OVCAR-3 ovarian was above 100 µM in each case.

For the compound `COc1cccc(-c2nc3ccccc3c(=O)[nH]2)c1`, the TGI in the test with A498 renal was 51.6 µM; in the test with SK-MEL-28 melanoma, 96.6 µM; in the test on MCF7 breast, 43.1 µM; in the test with NCI-H460 lung, 42 µM; in the test with HCT-15 colon it was 51.6 µM; in the test on NCI-H522 lung, 60.8 µM. The TGI is 56.2 µM in the test with UACC-257 melanoma; 50.5 µM in the test on T-47D breast; 49.4 µM in the test on A549 NSCLC; above 100 µM in the test on SK-MEL-2 melanoma; 58.9 µM in the test with MDA-MB-231 breast; 41.7 µM with PC-3 prostate. The TGI in the test with IGROV1 ovarian was 58.8 µM; in the test with DU-145 prostate, above 100 µM; in the test with HOP-92 NSCLC, above 100 µM; in the test on OVCAR-3 ovarian, 42.7 µM.

As for `CC(=O)c1cccc(Nc2nc3ccccc3c3occc23)c1`, the TGI with A498 renal is 30.5 µM; in the test with SK-MEL-28 melanoma it was above 100 µM; with MCF7 breast, above 100 µM; with NCI-H460 lung it was above 100 µM; in the test with HCT-15 colon, above 100 µM; in the test on UACC-257 melanoma it was above 100 µM. Further, the TGI in the test with T-47D breast is above 100 µM; in the test with A549 NSCLC it was above 100 µM; with MDA-MB-231 breast, 56.4 µM; in the test on PC-3 prostate, above 100 µM; with OVCAR-4 ovarian, 61.5 µM; in the test with CCRF-CEM leukemia, above 100 µM. Further, the TGI was above 100 µM in the test on DU-145 prostate, 8.25 µM in the test with NCI-H226 lung, 33 µM with HOP-92 NSCLC and above 100 µM in the test on OVCAR-3 ovarian.

The values are drawn from PubChem BioAssay (NCI).
